Laboratory results: patent EP4471048A1, “PEPTIDE INHIBITORS OF INTERLEUKIN-23 RECEPTOR” (Zealand Pharma A/S, priority 2023, dated 2024)
Where a SMILES comes first, the peptide text is derived from it. Bridges are numbered along the chain shown (N, C = ends). [ ]: non-standard residue; d: D form. Trp(1-Me) = Cn1cc(C[C@H](N)C(=O)O)c2ccccc21; β3hW = N[C@H](CC(=O)O)Cc1c[nH]c2ccccc12; 2Nal = N[C@@H](Cc1ccc2ccccc2c1)C(=O)O; AEF = NCCOc1ccc(C[C@H](N)C(=O)O)cc1; 3Pal = N[C@@H](Cc1cccnc1)C(=O)O; αMeL = CC(C)C[C@](C)(N)C(=O)O; β3hK = NCCCC[C@H](N)CC(=O)O; Dab = NCC[C@H](N)C(=O)O; βAla = NCCC(=O)O

Molecular target: T1, human IL-23R (Homo sapiens, UniProt Q5VWK5)
T1 sequence (Q5VWK5 22-629): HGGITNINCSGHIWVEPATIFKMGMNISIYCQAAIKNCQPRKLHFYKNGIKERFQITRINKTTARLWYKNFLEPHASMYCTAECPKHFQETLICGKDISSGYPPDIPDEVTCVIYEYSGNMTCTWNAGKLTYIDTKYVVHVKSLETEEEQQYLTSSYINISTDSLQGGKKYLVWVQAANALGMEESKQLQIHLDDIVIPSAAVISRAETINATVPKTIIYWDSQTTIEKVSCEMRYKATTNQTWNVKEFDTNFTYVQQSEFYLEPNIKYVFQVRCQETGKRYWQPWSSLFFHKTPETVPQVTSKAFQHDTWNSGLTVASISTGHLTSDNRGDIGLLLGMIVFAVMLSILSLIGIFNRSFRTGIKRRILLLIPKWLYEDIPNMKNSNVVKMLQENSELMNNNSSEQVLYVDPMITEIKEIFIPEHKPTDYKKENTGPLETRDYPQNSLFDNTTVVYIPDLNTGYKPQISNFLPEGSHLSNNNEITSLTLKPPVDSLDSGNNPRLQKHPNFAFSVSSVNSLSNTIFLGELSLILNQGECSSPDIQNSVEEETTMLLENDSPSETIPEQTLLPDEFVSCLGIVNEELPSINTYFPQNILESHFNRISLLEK
Assay: biochemical
Details: for Emax: read-out: % displacement (hIL-23R NIuc)
Method in brief: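 BRET displacement of a TAMRA-labelled reference compound from N-terminal Nanoluc-IL-23R fusion protein in membranes from stably transfected HEK293 cells. Incubation 2 h at room temperature, then Nanoluc substrate was added and the TAMRA/Nanoluc ratio read. IC50 and maximal displacement came from 4-parameter logistic fits.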

% displacement (hIL-23R NIuc)	IC50	Emax	SMILES
100%	3 nM		CC[C@H](C)[C@@H]1NC(=O)[C@@H]2CCCCNC(=O)CC[C@@H](C(=O)N[C@@H](CCN)C(=O)N[C@@H](Cc3cncnc3)C(=O)NC)NC(=O)[C@](C)(CC(C)C)NC(=O)[C@H](Cc3ccc4ccccc4c3)NC(=O)[C@H](Cc3ccc(OCCN)cc3)NC(=O)[C@H](CCC(=O)N2)NC(=O)[C@H](CCC(N)=O)NC(=O)[C@H](Cc2c[nH]c3ccccc23)NC(=O)[C@H](C(C)C)NC1=O [Compound 78, K(1c)(6c)^†IVWQE(6c)[Y(2-aminoethoxy)][2-Nal][2-Me-Leu]E(1c)[Dab][3-(3,5-Pyrimidyl)-Ala]-[NHMe]]
	0.02 nM	100%	CNC(=O)[C@H](Cc1cccnc1)NC(=O)[C@H](CCN)NC(=O)[C@@H]1CCC(=O)NCCCC[C@@H]2NC(=O)CC[C@H](NC(=O)[C@H](CCC(N)=O)NC(=O)[C@H](Cc3cn(C)c4ccccc34)NC(=O)CCNC2=O)C(=O)N[C@@H](Cc2ccc(OCCN)cc2)C(=O)N[C@@H](Cc2ccc3ccccc3c2)C(=O)N[C@@](C)(CC(C)C)C(=O)N1 [Compound 79, K(1c)(6c)^†[3-Aminopropanoyl][1-Me-Trp]QE(6c)[Y(2-aminoethoxy)][2-Nal][2-Me-Leu]E(1c)[Dab][3-(3-Pyridyl)-Ala]-[NHMe]] (K[βAla][Trp(1-Me)]QE[AEF][2Nal][αMeL]E[Dab][3Pal]-NHMe; lactam 1-9, N-5)
	3.7 nM	101%	CNC(=O)[C@H](Cc1cccnc1)NC(=O)[C@H](CCN)NC(=O)[C@@H]1CCC(=O)NCCCC[C@@H]2NC(=O)CC[C@H](NC(=O)[C@H](CCC(N)=O)NC(=O)[C@H](Cc3c[nH]c4ccccc34)NC(=O)CCNC2=O)C(=O)N[C@@H](CC2CC2)C(=O)N[C@@H](Cc2ccc3ccccc3c2)C(=O)N[C@@](C)(CC(C)C)C(=O)N1 [Compound 82, K(1c)(6c)^†[3-Aminopropanoyl]WQE(6c)[Cyclopropyl-Ala][2-Nal][2-Me-Leu]E(1c)[Dab][3-(3-Pyridyl)-Ala]-[NHMe]]
	0.052 nM	100%	CNC(=O)[C@H](Cc1cccnc1)NC(=O)[C@H](Cc1ccccn1)NC(=O)[C@@H]1CCC(=O)NCCCC[C@@H]2NC(=O)CC[C@H](NC(=O)[C@H](CCC(N)=O)NC(=O)[C@H](Cc3c[nH]c4ccccc34)NC(=O)CCNC2=O)C(=O)N[C@@H](Cc2ccc(OCCN)cc2)C(=O)N[C@@H](Cc2ccc3ccccc3c2)C(=O)N[C@@](C)(CC(C)C)C(=O)N1 [Compound 88, K(1c)(6c)^†[3-Aminopropanoyl]WQE(6c)[Y(2-aminoethoxy)][2-Nal][2-Me-Leu]E(1 c)[3-(2-Pyridyl)-Ala][3-(3-Pyridyl)-Ala]-[NHMe]]
	0.04 nM	100%	CNC(=O)[C@H](Cc1cccnc1)NC(=O)[C@H](Cc1ccncc1)NC(=O)[C@@H]1CCC(=O)NCCCC[C@@H]2NC(=O)CC[C@H](NC(=O)[C@H](CCC(N)=O)NC(=O)[C@H](Cc3c[nH]c4ccccc34)NC(=O)CCNC2=O)C(=O)N[C@@H](Cc2ccc(OCCN)cc2)C(=O)N[C@@H](Cc2ccc3ccccc3c2)C(=O)N[C@@](C)(CC(C)C)C(=O)N1 [Compound 89, K(1c)(6c)^†[3-Aminopropanoyl]WQE(6c)[Y(2-aminoethoxy)][2-Nal][2-Me-Leu]E(1 c)[3-(4-Pyridyl)-Ala][3-(3-Pyridyl)-Ala]-[NHMe]]
	6.4 nM	101%	CNC(=O)[C@H](Cc1cccnc1)NC(=O)[C@H](CCN)NC(=O)[C@@H]1CCC(=O)NCCC[C@@H]2NC(=O)CC[C@H](NC(=O)[C@H](CCC(N)=O)NC(=O)[C@H](Cc3c[nH]c4ccccc34)NC(=O)CNC2=O)C(=O)N[C@@H](Cc2ccc(OCCN)cc2)C(=O)N[C@@H](Cc2ccc3ccccc3c2)C(=O)N[C@@](C)(CC(C)C)C(=O)N1 [Compound 90, [Orn](1c)(6c)^†GWQE(6c)[Y(2-aminoethoxy)][2-Nal][2-Me-Leu]E(1c)[Dab][3-(3-Pyridyl)-Ala]-[NHMe]]
	12 nM		CNC(=O)[C@H](Cc1cccnc1)NC(=O)[C@H](CCN)NC(=O)[C@@H]1CCC(=O)NCC[C@@H]2NC(=O)CC[C@H](NC(=O)[C@H](CCC(N)=O)NC(=O)[C@H](Cc3c[nH]c4ccccc34)NC(=O)CNC2=O)C(=O)N[C@@H](Cc2ccc(OCCN)cc2)C(=O)N[C@@H](Cc2ccc3ccccc3c2)C(=O)N[C@@](C)(CC(C)C)C(=O)N1 [Compound 92, [Dab](1c)(6c)^†GWQE(6c)[Y(2-aminoethoxy)][2-Nal][2-Me-Leu]E(1c)[Dab][3-(3-Pyridyl)-Ala]-[NHMe]]
99%	3 nM		CNC(=O)[C@H](Cc1cccnc1)NC(=O)[C@H](CCN)NC(=O)[C@@H]1CCC(=O)NCCCCC[C@@H]2NC(=O)CC[C@H](NC(=O)[C@H](CCC(N)=O)NC(=O)[C@H](Cc3c[nH]c4ccccc34)NC2=O)C(=O)N[C@@H](Cc2ccc(OCCN)cc2)C(=O)N[C@@H](Cc2ccc3ccccc3c2)C(=O)N[C@@](C)(CC(C)C)C(=O)N1 [Compound 93, [hLys](1c)(6c)^†WQE(6c)[Y(2-aminoethoxy)][2-Nal][2-Me-Leu]E(1c)[Dab][3-(3-Pyridyl)-Ala]-[NHMe]]
	3.7 nM	99%	CNC(=O)[C@H](Cc1cccnc1)NC(=O)[C@H](CCN)NC(=O)[C@@H]1CCC(=O)NCC[C@@H]2NC(=O)CC[C@H](NC(=O)[C@H](CCC(N)=O)NC(=O)[C@H](Cc3c[nH]c4ccccc34)NC2=O)C(=O)N[C@@H](Cc2ccc(OCCN)cc2)C(=O)N[C@@H](Cc2ccc3ccccc3c2)C(=O)N[C@@](C)(CC(C)C)C(=O)N1 [Compound 94, [Dab](1c)(6c)^†WQE(6c)[Y(2-aminoethoxy)][2-Nal][2-Me-Leu]E(1c)[Dab][3-(3-Pyridyl)-Ala]-[NHMe]]
	17 nM	98%	CNC(=O)[C@H](Cc1cccnc1)NC(=O)[C@H](CCN)NC(=O)[C@@H]1CCC(=O)NC[C@@H]2NC(=O)CC[C@H](NC(=O)[C@H](CCC(N)=O)NC(=O)[C@H](Cc3c[nH]c4ccccc34)NC2=O)C(=O)N[C@@H](Cc2ccc(OCCN)cc2)C(=O)N[C@@H](Cc2ccc3ccccc3c2)C(=O)N[C@@](C)(CC(C)C)C(=O)N1 [Compound 95, [Dpr](1c)(6c)^†WQE(6c)[Y(2-aminoethoxy)][2-Nal][2-Me-Leu]E(1c)[Dab][3-(3-Pyridyl)-Ala]-[NHMe]]
101%	0.061 nM		CNC(=O)[C@H](Cc1cccnc1)NC(=O)[C@H](CCN)NC(=O)[C@@H]1CCC(=O)NCCCC[C@@H]2NC(=O)CC[C@H](NC(=O)[C@H](CCC(N)=O)NC(=O)[C@H](Cc3c[nH]c4ccccc34)NC(=O)C[C@H]([C@@H](C)O)NC2=O)C(=O)N[C@@H](Cc2ccc(OCCN)cc2)C(=O)N[C@@H](Cc2ccc3ccccc3c2)C(=O)N[C@@](C)(CC(C)C)C(=O)N1 [Compound 97, K(1c)(6c)^†[beta-hThr]WQE(6c)[Y(2-aminoethoxy)][2-Nal][2-Me-Leu]E(1c)[Dab][3-(3-Pyridyl)-Ala]-[NHMe]]
	150 nM	97%	CNC(=O)[C@H](Cc1cccnc1)NC(=O)[C@H](CCN)NC(=O)[C@@H]1CCC(=O)NCCCC[C@H]2CC(=O)N[C@@H](Cc3c[nH]c4ccccc34)CC(=O)N[C@@H](CCC(N)=O)C(=O)N[C@@H](CCC(=O)N2)C(=O)N[C@@H](Cc2ccc(OCCN)cc2)C(=O)N[C@@H](Cc2ccc3ccccc3c2)C(=O)N[C@@](C)(CC(C)C)C(=O)N1 [Compound 100, [beta-hLys](1c)(6c)^†[beta-hTrp]QE(6c)[Y(2-aminoethoxy)][2-Nal][2-Me-Leu]E(1c)[Dab][3-(3-Pyridyl)-Ala]-[NHMe]] ([β3hK][β3hW]QE[AEF][2Nal][αMeL]E[Dab][3Pal]-NHMe; lactam 1-8, N-4)
	30 nM	103%	CNC(=O)[C@H](Cc1cccnc1)NC(=O)[C@H](CCN)NC(=O)[C@@H]1CCC(=O)NCCCC[C@H]2CC(=O)N[C@@H](Cc3c[nH]c4ccccc34)C(=O)N[C@@H](CCC(N)=O)C(=O)N[C@@H](CCC(=O)N2)C(=O)N[C@@H](Cc2ccc(OCCN)cc2)C(=O)N[C@@H](Cc2ccc3ccccc3c2)C(=O)N[C@@](C)(CC(C)C)C(=O)N1 [Compound 101, [beta-hLys](1c)(6c)^†WQE(6c)[Y(2-aminoethoxy)][2-Nal][2-Me-Leu]E(1c)[Dab][3-(3-Pyridyl)-Ala]-[NHMe]]
	4.5 nM	97%	CNC(=O)[C@H](Cc1cccnc1)NC(=O)[C@H](CCN)NC(=O)[C@@H]1CCC(=O)N[C@H]2CCCCNC(=O)CC[C@H](NC(=O)[C@H](CCC(N)=O)NC(=O)[C@H](Cc3c[nH]c4ccccc34)NC2=O)C(=O)N[C@@H](Cc2ccc(OCCN)cc2)C(=O)N[C@@H](Cc2ccc3ccccc3c2)C(=O)N[C@@](C)(CC(C)C)C(=O)N1 [Compound 102, [iso-Lys](1c)^t(6c)WQE(6c)[Y(2-aminoethoxy)][2-Nal][2-Me-Leu]E(1c)[Dab][3-(3-Pyridyl)-Ala]-[NHMe]] (KWQE[AEF][2Nal][αMeL]E[Dab][3Pal]-NHMe; lactam 1-4, N-8)
	15 nM	101%	CNC(=O)[C@H](Cc1cccnc1)NC(=O)[C@H](CCN)NC(=O)[C@@H]1CCC(=O)N[C@H]2CCNC(=O)CC[C@H](NC(=O)[C@H](CCC(N)=O)NC(=O)[C@H](Cc3c[nH]c4ccccc34)NC2=O)C(=O)N[C@@H](Cc2ccc(OCCN)cc2)C(=O)N[C@@H](Cc2ccc3ccccc3c2)C(=O)N[C@@](C)(CC(C)C)C(=O)N1 [Compound 103, [iso-Dab](1c)^†(6c)WQE(6c)[Y(2-aminoethoxy)][2-Nal][2-Me-Leu]E(1c)[Dab][3-(3-Pyridyl)-Ala]-[NHMe]]
